# Assay results published in patent US6781000B1, “Alpha-ketoamide inhibitors of 20S proteasome” (CV Theurapeutics, Inc., priority 1998, dated 2004).
# Molecular target: T1, chymotrypsin-like activity of 20S proteasome (Bos taurus, UniProt Q2TBX6+Q32KL2)
# T1 construct: was purified to homogeneity from bovine brain according to published methods; from tissue; host or cells: bovine brain
# Experiment: 20S proteasome chymotryptic activity inhibition assay (Suc-Leu-Leu-Val-Tyr-AMC cleavage)
# Assay type: biochemical
# Settings: 2 μg 20S proteasome from bovine brain, 50 μM fluorogenic substrate, 15 minutes at 37° C., pH7.5
# Summary of the method: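 Bovine brain 20S proteasome (2 μg) with inhibitor at 0.1-100 μg/ml in 50 mM HEPES, 0.1% SDS, pH7.5. Reaction started with 50 μM Suc-LLVY-AMC, run 15 min at 37° C, stopped with pH 4.0 acetate; liberated AMC read by fluorescence (EX 370 nm, EM 430 nm).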
IC50 [µM],IC50 for the inhibition of the chymotrypsin-like activity of 20S proteasome [µg/mL],SMILES
> 16.4,–,CC(C)CC(NC(=O)C(Cc1ccc(-c2ccccc2)cc1)NC(=O)C(=O)Cc1c[nH]c2ccccc12)C(=O)NC(C)C(=O)O (stereo not drawn) [Compound 81]
–,>10,CC(C)CC(NC(=O)C(Cc1cccnc1)NC(=O)C(=O)Cc1c[nH]c2ccccc12)C(=O)NC(C(=O)O)C(C)C (stereo not drawn) [Compound 173]
–,>10,CC(C)CC(NC(=O)C(=O)Cc1c[nH]c2ccccc12)C(=O)NC(CC(C)C)C(=O)NC(Cc1ccc(O)cc1)C(=O)O (stereo not drawn) [Compound 36]
–,>10,CC(C)CC(NC(=O)C(=O)c1c[nH]c2ccccc12)C(=O)NC(CC(C)C)C(=O)NCC(=O)NCc1ccccc1 (stereo not drawn) [Compound 8]
–,>10,CC(C)CC(NC(=O)C(Cc1ccc(O)cc1)NC(=O)C(=O)Cc1c[nH]c2ccccc12)C(=O)NC(CC(=O)O)C(=O)O (stereo not drawn) [Compound 143]
–,>10,CC(C)CC(NC(=O)CCNC(=O)C(=O)Cc1c[nH]c2ccccc12)C(=O)NC(Cc1ccccc1)C(=O)O (stereo not drawn) [Compound 105]
–,>10,CC(C)CC(NC(=O)C(Cc1ccc(-c2ccccc2)cc1)NC(=O)C(=O)Cc1c[nH]c2ccccc12)C(=O)NC(CO)C(=O)O (stereo not drawn) [Compound 103]
–,>10,CC(C)CC(NC(=O)C(NC(=O)C(=O)Cc1c[nH]c2ccccc12)C(C)O)C(=O)NC(C)C(=O)O (stereo not drawn) [Compound 71]
> 19.4,–,CCCC[C@H](NC(=O)C(=O)Cc1c[nH]c2ccccc12)C(=O)N[C@H](CC(C)C)C(=O)N[C@@H](CO)C(=O)O [Compound 91]
> 15.7,–,CC(C)C[C@@H](NC(=O)[C@H](Cc1ccc(-c2ccccc2)cc1)NC(=O)C(=O)Cc1c[nH]c2ccccc12)C(=O)N[C@H](C(=O)O)C(C)C [Compound 51]
–,5,CC(C)CC(NC(=O)C(Cc1ccc2ccccc2c1)NC(=O)C(=O)Cc1c[nH]c2ccccc12)C(=O)NC(CC(=O)O)C(=O)O (stereo not drawn) [Compound 180]
–,>10,CC(C)CC(NC(=O)C(Cc1ccc2ccccc2c1)NC(=O)C(=O)Cc1c[nH]c2ccccc12)C(=O)NC(Cc1ccccc1)C(=O)O (stereo not drawn) [Compound 179]
–,>10,CC(C)CC(NC(=O)C(Cc1ccc(-c2ccccc2)cc1)NC(=O)C(=O)Cc1c[nH]c2ccccc12)C(=O)NC(CC(=O)O)C(=O)O (stereo not drawn) [Compound 195]
–,>10,CC(C)CC(NC(=O)C(CC1CCCCC1)NC(=O)C(=O)Cc1c[nH]c2ccccc12)C(=O)NC(C(=O)O)C(C)C (stereo not drawn) [Compound 48]
–,>10,CCCC(NC(=O)C(=O)Cc1c[nH]c2ccccc12)C(=O)NC(CC(C)C)C(=O)NC(C(=O)O)C(C)C (stereo not drawn) [Compound 201]
–,>10,CC(C)CC(NC(=O)C(=O)c1c[nH]c2ccccc12)C(=O)NC(CC(C)C)C(=O)NC(Cc1ccccc1)C(=O)O (stereo not drawn) [Compound 14]
–,>10,CC(C)CC(NC(=O)C(C)NC(=O)C(=O)Cc1c[nH]c2ccccc12)C(=O)NCC(=O)O (stereo not drawn) [Compound 57]
–,>10,CCCCC(NC(=O)C(CC(C)C)NC(=O)C(Cc1ccccc1)NC(=O)C(=O)Cc1c[nH]c2ccccc12)C(=O)O (stereo not drawn) [Compound 122]
–,>10,CC(C)CC(NC(=O)CCNC(=O)C(=O)Cc1c[nH]c2ccccc12)C(=O)NC(Cc1ccc(O)cc1)C(=O)O (stereo not drawn) [Compound 84]
–,>10,CC(C)CC(NC(=O)C(Cc1ccc(-c2ccccc2)cc1)NC(=O)C(=O)Cc1c[nH]c2ccccc12)C(=O)NC(CCCCN)C(=O)O (stereo not drawn) [Compound 193]

SMILES,IC50 [µM],IC50 for the inhibition of the chymotrypsin-like activity of 20S proteasome [µg/mL]
CC(C)CC(NC(=O)C(=O)Cc1c[nH]c2ccccc12)C(=O)NC(CC(C)C)C(=O)NC(C)C(=O)O (stereo not drawn) [Compound 20],–,>10
